Experiments:
SARS-CoV-1pp = assay: microbe, parasite or virus in culture; type: cell-based; conditions: Severe acute respiratory syndrome coronavirus, HEK293, 48 h, read-out: EC50 SARS-CoV-1pp
SARS-CoV-2pp = assay: microbe, parasite or virus in culture; type: cell-based; conditions: for EC50: Severe acute respiratory syndrome coronavirus 2, HEK293, 48 h, read-out: EC50 SARS-CoV-2pp; for IC50: Severe acute respiratory syndrome coronavirus 2, HEK293, read-out: IC50, inhibition of SARS-CoV-2pp infection of HEK-293-hACE2 cells
[1] = test system: B.1.1.28 (gamma) SARS-CoV-2pp; assay: microbe, parasite or virus in culture; type: cell-based; conditions: Severe acute respiratory syndrome coronavirus 2, HEK293, 48 h, read-out: EC50 B.1.1.28 (gamma) SARS-CoV-2pp
COVID-19 = conditions: Phase 2 clinical trial; ref BerGenBio, 2022; cited from earlier work
[2] = test system: B.1.351 (beta) SARS-CoV-2pp; assay: microbe, parasite or virus in culture; type: cell-based; conditions: Severe acute respiratory syndrome coronavirus 2, HEK293, 48 h, read-out: EC50 B.1.351 (beta) SARS-CoV-2pp
MERSpp = assay: microbe, parasite or virus in culture; type: cell-based, MERS; conditions: Middle East respiratory syndrome-related coronavirus, HeLa, 48 h, read-out: EC50 MERSpp
SARS-CoV-2 [3] = assay: microbe, parasite or virus in culture; type: cell-based; conditions: Severe acute respiratory syndrome coronavirus 2, A549, read-out: IC50, inhibition of SARS-CoV-2 infection of A549-hACE2 cells
[4] = test system: B.1.617.2 (delta) SARS-CoV-2pp; assay: microbe, parasite or virus in culture; type: cell-based; conditions: Severe acute respiratory syndrome coronavirus 2, HEK293, 48 h, read-out: EC50 B.1.617.2 (delta) SARS-CoV-2pp
A549 cells [5] = assay: A549 cell vacuolization analysis (phase contrast); conditions: 5 µM, 24 h
SARS-CoV-2 [6] = conditions: ref Dittmar et al., 2021; cited from earlier work
[7] = test system: SARS CoV-2 2019-nCoV/USA-WA1/2020; assay: Efficacy in SARS-CoV2 infected K18-hACE2 mice (lung viral load by plaque assay); type: in vivo; conditions: 2 h before and 24 h after infection, 3 days post-infection; for effect on SARS-CoV2 viral load in lung homogenates: 100 mg/kg p.o. at 24 h before
A549 cells [8] = assay: A549 cell phospholipidosis (NBD-PE staining assay); conditions: 24 h, dose-range; amiodarone positive control
BA.2 SARS-CoV-2pp = assay: microbe, parasite or virus in culture; type: cell-based; conditions: Severe acute respiratory syndrome coronavirus 2, HEK293, 48 h, read-out: EC50 BA.2 SARS-CoV-2pp
[9] = test system: B.1.1.529 (omicron) SARS-CoV-2pp; assay: microbe, parasite or virus in culture; type: cell-based; conditions: Severe acute respiratory syndrome coronavirus 2, HEK293, 48 h, read-out: EC50 B.1.1.529 (omicron) SARS-CoV-2pp
[10] = test system: B.1.1.7 (alpha) SARS-CoV-2pp; assay: microbe, parasite or virus in culture; type: cell-based; conditions: Severe acute respiratory syndrome coronavirus 2, HEK293, 48 h, read-out: EC50 B.1.1.7 (alpha) SARS-CoV-2pp
[11] = Pharmacokinetics analysis in mice; conditions: C57 Bl/6, mouse, plasma, po
AXL kinase = target: T1, AXL kinase (Homo sapiens, UniProt P30530); assay: AXL kinase assay (Reaction Biology Hot Spot, 33P-ATP); type: biochemical
T1 construct: purchased Reaction Biology
T1 sequence (P30530 26-894): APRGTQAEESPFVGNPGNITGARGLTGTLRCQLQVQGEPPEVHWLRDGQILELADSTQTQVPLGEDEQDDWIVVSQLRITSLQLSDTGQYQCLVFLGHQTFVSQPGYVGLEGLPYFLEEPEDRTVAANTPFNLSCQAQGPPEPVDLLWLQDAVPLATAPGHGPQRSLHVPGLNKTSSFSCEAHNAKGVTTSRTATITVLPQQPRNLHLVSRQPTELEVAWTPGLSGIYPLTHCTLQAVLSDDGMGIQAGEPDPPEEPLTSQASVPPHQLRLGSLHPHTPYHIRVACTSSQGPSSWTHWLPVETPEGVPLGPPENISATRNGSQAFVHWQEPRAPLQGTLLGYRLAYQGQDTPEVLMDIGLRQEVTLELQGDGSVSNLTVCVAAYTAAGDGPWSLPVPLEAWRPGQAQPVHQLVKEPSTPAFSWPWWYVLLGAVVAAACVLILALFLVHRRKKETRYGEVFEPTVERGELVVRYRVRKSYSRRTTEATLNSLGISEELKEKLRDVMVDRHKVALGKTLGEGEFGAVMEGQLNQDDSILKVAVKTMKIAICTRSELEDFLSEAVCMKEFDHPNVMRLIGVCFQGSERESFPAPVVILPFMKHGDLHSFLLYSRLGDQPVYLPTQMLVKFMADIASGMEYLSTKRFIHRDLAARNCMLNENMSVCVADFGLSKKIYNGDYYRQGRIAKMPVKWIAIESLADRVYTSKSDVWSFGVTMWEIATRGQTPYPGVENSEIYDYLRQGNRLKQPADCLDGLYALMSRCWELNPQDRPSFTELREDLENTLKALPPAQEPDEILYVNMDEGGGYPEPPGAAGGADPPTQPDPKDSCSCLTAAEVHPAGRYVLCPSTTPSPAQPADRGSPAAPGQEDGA

Compound | EC50 (SARS-CoV-1pp) [µM] | EC50 (SARS-CoV-2pp) [µM] | IC50 (SARS-CoV-2pp) [µM] | EC50 [1] [µM] | EC50 [2] [µM] | EC50 (MERSpp) [µM] | IC50 (SARS-CoV-2 [3]) [µM] | EC50 [4] [µM] | vacuolization in human lung A549 cells (A549 cells [5]) | effect on SARS-CoV2 viral load in lung homogenates [7] | phospholipidosis in A549 cells (NBD-PE staining) (A549 cells [8]) | EC50 (BA.2 SARS-CoV-2pp) [µM] | EC50 [9] [µM] | EC50 [10] [µM] | AUC ([11]; 100 mg/kg) [ng·h/mL] | Cmax ([11]; 100 mg/kg) [ng/mL] | Tmax ([11]; 100 mg/kg) [h] | also measured
Nc1nc(Nc2ccc3c(c2)CC[C@@H](N2CCCC2)CC3)nn1-c1cc2c(nn1)-c1ccccc1CCC2 [Bemcentinib, bemcentinib, reference compound] | 0.91 ± 0.01 | 5.68 ± 3.76 | 5.7 | 0.42 ± 0.12 | 0.39 ± 0.14 | 0.09 ± 0.01 | 0.07 | 0.38 ± 0.14 | induced significant vacuolization | failed to reduce SARS-CoV2 viral load | neither compound demonstrated phospholipidosis | 0.16 ± 0.03 | 0.21 ± 0.01 | 0.43 ± 0.18 | 33300 | 1760 | 13 | clinical response in patients hospitalized with COVID-19 (COVID-19): improved clinical response and key secondary endpoints; inhibition of SARS-CoV-2 infection of human lung Calu-3 cells (SARS-CoV-2 [6]): inhibits SARS-CoV-2 infection of human lung Calu-3 cells
FC(F)(F)c1nc(Nc2ccc3c(c2)CCC(N2CCCC2)CC3)n(-c2cc3c(nn2)-c2ccccc2CCC3)n1 (centres unmarked) [WYS-694] | 0.82 ± 1.02 | 0.08 ± 0.03 | – | 0.16 ± 0.15 | 0.18 ± 0.11 | – | – | 0.13 ± 0.09 | – | – | – | 0.45 ± 0.44 | 0.13 ± 0.12 | 0.12 ± 0.07 | – | – | – | fold more potent than WYS-633 in inhibiting viral entry (SARS-CoV-2pp): 12.5 fold; reduction of SARS-CoV-2 viral load in lung homogenates ([7]; 30 mg/kg p.o. at 24 h before): more than 4 fold; AUC ([11]; 30 mg/kg): 10700 ng·h/mL; Cmax ([11]; 30 mg/kg): 556 ng/mL; Tmax ([11]; 30 mg/kg): 24 h
c1ccc2c(c1)CCCc1cc(-c3nnc(Nc4ccc5c(c4)CCC(N4CCCC4)CC5)o3)nnc1-2 (centres unmarked) [WYS-633] | 0.75 ± 0.07 | 2.52 ± 2.26 | 2.52 | 1.66 ± 0.71 | 1.25 ± 0.05 | 0.31 ± 0.12 | 0.61 | 1.05 ± 0.37 | did not | failed to reduce SARS-CoV2 viral load | neither compound demonstrated phospholipidosis | 0.68 ± 0.29 | 1.03 ± 0.65 | 1.23 ± 0.58 | 7920 | 950 | 2 | activity against AXL kinase (in words) (AXL kinase): inactive
